# Values quoted from earlier work, collected in PMC9645344, “Serotonin-releasing agents with reduced off-target effects” (Molecular Psychiatry, 2022).
# Target: 5-HT2B receptor (Homo sapiens, UniProt P41595)
# Design: method as in PMID 30610839
# Conditions: concentrations as high as 7 µM; cited from earlier work
# Chain of 5-HT2B receptor (P41595 whole entry): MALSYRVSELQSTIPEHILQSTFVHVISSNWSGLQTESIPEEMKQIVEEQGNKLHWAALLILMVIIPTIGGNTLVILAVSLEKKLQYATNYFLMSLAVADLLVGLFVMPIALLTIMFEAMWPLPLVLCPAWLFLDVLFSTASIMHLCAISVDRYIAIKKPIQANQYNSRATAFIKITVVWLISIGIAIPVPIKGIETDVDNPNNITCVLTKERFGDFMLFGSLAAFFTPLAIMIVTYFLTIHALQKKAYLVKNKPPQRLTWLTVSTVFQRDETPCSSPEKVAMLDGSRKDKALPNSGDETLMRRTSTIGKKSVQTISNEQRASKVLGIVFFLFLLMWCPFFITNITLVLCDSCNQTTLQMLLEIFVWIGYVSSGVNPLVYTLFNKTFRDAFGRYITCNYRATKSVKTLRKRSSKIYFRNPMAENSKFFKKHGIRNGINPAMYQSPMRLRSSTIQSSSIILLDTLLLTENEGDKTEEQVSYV
structure (smiles),measurement,value
"Cc1ccc(C(=O)[C@H](C)N)cc1 [S-4-MC, 4-methylcathinone]",binding to the 5-HT2B receptor,no binding
